Test results published in patent publication US20040044013A1, “1-dimercaptoalkylquinazolin-2,4(1h,3h)-diones as matrix metalloproteinase (mmp) inhibitors” (priority 2001, published 2004).
Blank lines part the entries; values can stand above or below the molecule they belong to.

Tests used:
Type in all cases: biochemical
MMP-2 = molecular target: T1, MMP-2 (Homo sapiens, UniProt P08253); assay: Quantitative fluorescence assay for matrix metalloproteinases, MMP-2
T1 construct: endogenous in cells; host or cells: cultured human dermal fibroblasts (secreted into culture supernatant)
T1 sequence (P08253 110-660): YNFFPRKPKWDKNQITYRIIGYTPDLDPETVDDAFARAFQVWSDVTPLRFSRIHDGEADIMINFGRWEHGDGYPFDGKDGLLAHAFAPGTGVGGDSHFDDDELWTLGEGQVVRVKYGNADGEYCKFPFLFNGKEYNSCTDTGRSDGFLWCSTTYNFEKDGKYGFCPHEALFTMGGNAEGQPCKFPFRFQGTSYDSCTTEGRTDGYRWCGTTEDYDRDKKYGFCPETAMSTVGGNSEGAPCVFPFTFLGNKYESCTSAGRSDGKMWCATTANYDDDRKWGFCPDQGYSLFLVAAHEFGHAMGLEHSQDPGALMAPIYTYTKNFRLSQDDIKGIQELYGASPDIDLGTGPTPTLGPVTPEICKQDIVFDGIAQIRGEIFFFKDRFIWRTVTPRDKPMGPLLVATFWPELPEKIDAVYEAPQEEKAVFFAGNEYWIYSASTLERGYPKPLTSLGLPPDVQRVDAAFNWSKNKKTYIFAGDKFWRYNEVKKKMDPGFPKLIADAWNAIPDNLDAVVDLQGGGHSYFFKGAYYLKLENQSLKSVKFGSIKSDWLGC
Experimental: Inhibition of Matrix Metalloproteinase-2 (MMP-2)
MMP-2 (gelatinase) is supplied by cultured dermal fibroblasts to the culture medium in considerable amounts and is thus easily accessible.
For this purpose, human dermal fibroblasts are obtained according to established standard methods and cultured and the cell-free culture supernatant is treated with trypsin. Trypsin is then inactivated with a specific inhibitor (TLCK) and active MMP-2 is partially purified by affinity chromatography on gelatin sepharose and subsequent gel filtration on sepharose. MMP-2 was identified and characterized by the availability of a commercial immunoassay.
(§1) Quantitative Fluorescence Assay for Matrix Metalloproteinases
The fluorescent group Mca is separated from the internal quencher Dpa by enzymatic cleavage of the synthetic substrate Mca-Pro-Leu-Gly-Leu-Dpa-Ala-Arg-NH2 using the respective collagenase. This is accompanied by a great increase in fluorescence in the measuring batch, which can be quantified using a fluorimeter (λex 328 nm, λem 393 nm) and proceeds linearly within the first few minutes. A certain specificity of the test to matrix metalloproteinases follows from the amino acid sequence -Pro-Leu-Gly-Leu- in the substrate, on the one hand, and from the select incubation conditions, on the other hand. Matrix metalloproteinases cleave the substrate at the Gly-Leu bond. The proteolytic residual activity of pre-incubated batches of enzyme and inhibitor is measured, the substrate and enzyme concentrations having been kept constant and the inhibitor concentration having been varied. Three series of measurements using a different substrate concentration were made for each tested inhibitor.
[…] inhibitor dissolved in DMSO, or DMSO alone (non-inhibitory approach) 4 μl enzyme (MMP-2 or MMP-9 or catalytic domain of MMP-8)
(§2) 5 min. preliminary incubation of the enzyme-inhibitor mixture at room temperature while stirring start of the reaction with 10 μl substrate dissolved in DMSO recording of the time-sensitive fluorescence increase over a period of 2 min.

[1] = molecular target: T2, recombinant catalytic domain of MMP-3 (Homo sapiens, UniProt P08254); assay: Quantitative fluorescence assay for matrix metalloproteinases, MMP-3
T2 construct: Cloning and Expression of the Catalytic Domains of MT1-MMP and MMP-3; made in house; host or cells: Escherichia coli (inclusion bodies, renatured)
Source text: (§3) Cloning and Expression of the Catalytic Domains of MT1-MMP and MMP-3
(§4) Based on the good experience with the use of the catalytic domain of MMP-8 in the kinetic measurements, two more recombinant expressions were established analogously, i.e. that of human membrane type 1 matrix metalloproteinase (MT1-MMP; MMP-14) and that of human MMP-3 (stromelysin-1). Both enzymes are exemplary representatives of subgroups of human matrix metalloproteinases. Both proteins may be renatured stably and in catalytically active form from inclusion bodies of transformed Escherichia coli cells. As in the recombinant MMP-8 thus the subsequent activation of the enzymes is dropped, which improves the reproducibility of the kinetic measurements. The purity of the recombinant enzyme domains was at least 70%.
The cloning and expression of the catalytic domains oriented itself by the following publications: Lichte A., Kolkenbrock H., Tschesche H.: The recombinant catalytic domain of membrane-type matrix metalloproteinase-1 (MT1-MMP) induces activation of progelatinase A and progelatinase A complexed with TIMP-2. […]
as §1
(§5) The fluorescent group Mca is separated from the internal quencher Dpa by enzymatic cleavage of the synthetic substrate Mca-Pro-Leu-Gly-Leu-Dpa-Ala-Arg-NH2 using the respective collagenase. This is accompanied by a great increase in fluorescence in the measuring batch, which can be quantified using a fluorimeter (λex 328 nm, λem 393 nm) and proceeds linearly within the first few minutes. […] The proteolytic residual activity of pre-incubated batches of enzyme and inhibitor is measured, the substrate and enzyme concentrations having been kept constant and the inhibitor concentration having been varied. […]
as §2

[2] = molecular target: T3, catalytic domain of MMP-8 (Homo sapiens, UniProt P22894); assay: Quantitative fluorescence assay for matrix metalloproteinases, MMP-8
T3 construct: instead of the whole enzyme only its enzymatically active catalytic domain was cloned into E. coli; made in house; host or cells: E. coli
Source text: Cloning and Expression of the Catalytic MMP-8 Domain
The catalytic MMP-8 domain was used as another test enzyme because it has a high degree of stability and is also available as an active enzyme and therefore needs not be activated, which is in consideration as one of the most frequent causes of error since the mercury compounds used for the activation often interfere with the test system and/or the enzyme and in this way can falsify the measuring results. The cloning strategy was directed towards the circumstance that instead of the whole enzyme only its enzymatically active catalytic domain was cloned into E. coli.
The cloning and expression of the recombinant catalytic MMP-8 domain was carried out in accordance with the information given by SCHNIERER et al. (Schnierer S., Kleine T., Gote T., Hillemann A., Knauper V., Tschesche H.: The recombinant catalytic domain of human neutrophil collagenase lacks type I collagen substrate specificity. Biochem Biophys Res Comm (1993), vol. 191, No. 2, 319-326).
as §1, §5, §2

MMP-9 = molecular target: T4, MMP-9 (Homo sapiens, UniProt P14780); assay: Quantitative fluorescence assay for matrix metalloproteinases, MMP-9
T4 construct: from tissue; host or cells: human buffy coat (leukocytes)
Experimental: Preparation of the Human Collagenase MMP-9
Native MMP-9 was obtained reproducibly and with good yield and purity from human Buffy Coat. For this purpose, Buffy Coat is brought to a final concentration of 0.4% using 10% (v/v) triton X-100, shaken on ice for 30 min. and then 1 vol. double binding buffer (40 mM Tris-HCl, pH 7.5, 10 mM CaCl2, 1 M NaCl, 0.2% (v/v) triton X-100) is added and shaking on ice is continued for another 30 min.
The solution is centrifuged off at 16,000 rpm on an SS-34 rotor at 4° C. for 15 min. and filtered on glass wool. The filtrate is batched with gelatin agarose equilibrated with binding buffer and shaken on ice for 1 hour.
The charged gelatin agarose is transferred to a column and rinsed in protein-free manner using at least 10 vol. binding buffer. The bound MMP-9 is eluted with 2 gel volumes binding buffer plus 5% (v/v) DMSO.
For an exchange of buffers and simultaneous separation of minor MMP-2 contaminations the eluate can be separated on sephadex G-75 by means of gel filtration. Buffer I (20 mM Tris-HCl, pH 7.5, 5 mM CaCl2, 100 mM NaCl, 0.1% (v/v) triton X-100) is used for this purpose. […]
as §1, §5, §2

[3] = molecular target: T5, recombinant catalytic domain of MT1-MMP (MMP-14) (Homo sapiens, UniProt P50281); assay: Quantitative fluorescence assay for matrix metalloproteinases, MT1-MMP
T5 construct: Cloning and Expression of the Catalytic Domains of MT1-MMP and MMP-3; made in house; host or cells: Escherichia coli (inclusion bodies, renatured)
Source text: as §3
as §4, with “The purity of the recombinant enzyme domains was at least 70%.” left out
as §1, §5

T4 sequence (P14780 107-707 limits assumed): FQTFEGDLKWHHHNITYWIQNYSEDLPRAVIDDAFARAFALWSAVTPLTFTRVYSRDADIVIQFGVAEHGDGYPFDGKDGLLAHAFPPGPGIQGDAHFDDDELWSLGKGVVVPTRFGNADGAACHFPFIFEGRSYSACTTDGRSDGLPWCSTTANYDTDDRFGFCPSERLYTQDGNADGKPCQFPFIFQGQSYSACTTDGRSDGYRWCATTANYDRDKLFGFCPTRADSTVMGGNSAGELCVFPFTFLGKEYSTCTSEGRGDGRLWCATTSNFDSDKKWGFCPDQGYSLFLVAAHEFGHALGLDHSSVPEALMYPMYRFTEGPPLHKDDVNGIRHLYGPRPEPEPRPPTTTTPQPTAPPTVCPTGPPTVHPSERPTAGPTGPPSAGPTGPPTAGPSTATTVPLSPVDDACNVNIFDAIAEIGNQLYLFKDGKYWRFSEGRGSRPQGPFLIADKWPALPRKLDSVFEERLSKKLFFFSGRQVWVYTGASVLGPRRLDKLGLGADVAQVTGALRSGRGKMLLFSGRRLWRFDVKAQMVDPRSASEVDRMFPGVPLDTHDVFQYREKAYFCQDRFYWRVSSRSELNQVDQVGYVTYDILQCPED
T3 sequence (P22894 100-262 limits assumed): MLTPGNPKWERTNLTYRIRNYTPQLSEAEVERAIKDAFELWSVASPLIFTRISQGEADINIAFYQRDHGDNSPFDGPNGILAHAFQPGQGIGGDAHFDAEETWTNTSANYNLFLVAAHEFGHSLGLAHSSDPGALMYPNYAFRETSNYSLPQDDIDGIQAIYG
T2 sequence (P08254 100-272 limits assumed): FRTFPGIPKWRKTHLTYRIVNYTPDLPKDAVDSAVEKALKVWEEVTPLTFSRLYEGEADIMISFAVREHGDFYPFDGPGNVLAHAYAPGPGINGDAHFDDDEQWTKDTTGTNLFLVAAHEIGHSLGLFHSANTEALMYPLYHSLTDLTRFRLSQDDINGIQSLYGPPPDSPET

MMP-2 inhibition (MMP-2; with 4 μM inhibitor): 75% | MMP-3 inhibition ([1]; with 4 μM inhibitor): 75% | MMP-8 inhibition ([2]; with 4 μM inhibitor): 75% | MMP-9 inhibition (MMP-9; with 4 μM inhibitor): 80% | MT1-MMP inhibition ([3]; with 4 μM inhibitor): 60%
SMILES: O=c1[nH]c(=O)n(CC(S)CS)c2ccccc12 (racemic) [Example 2, (R,S)-1-(2′,3′-Dimercapto-prop-1′-yl)quinazoline-2,4(1H,3H)-dione]

MMP-2 inhibition (MMP-2; with 5 μM inhibitor): 50% | MMP-3 inhibition ([1]; with 9 μM inhibitor): 50% | MMP-8 inhibition ([2]; with 3.5 μM inhibitor): 50% | MMP-9 inhibition (MMP-9; with 3.5 μM inhibitor): 50%
SMILES: O=c1[nH]c(=O)n(CCC(S)CS)c2ccccc12 (racemic) [Example 3, (R,S)-1-(3′,4′-Dimercapto-but-1′-yl)quinazoline-2,4(1H,3H)dione]

SMILES: O=c1[nH]c(=O)n(C(CS)CS)c2ccccc12 [Example 1, 1-(1′,3′-Dimercapto-prop-2′-yl)quinazoline-2,4(1H,3H)dione]
MMP-2 inhibition (MMP-2; with 10 μM inhibitor): 50% | MMP-3 inhibition ([1]; with 10 μM inhibitor): 50% | MMP-8 inhibition ([2]; with 10 μM inhibitor): 70% | MMP-9 inhibition (MMP-9; with 10 μM inhibitor): 60% | MT1-MMP inhibition ([3]; with 10 μM inhibitor): 30% inhi-
